In patent US11639353B2, “Cyclobutanes- and azetidine-containing mono and spirocyclic compounds as αV integrin inhibitors” (BRISTOL-MYERS SQUIBB COMPANY, priority 2016, dated 2023):
Where a name gives a salt, the structure may show the parent alone.

Biological target: T1, human αVβ6 (Homo sapiens, UniProt P06756+P18564)
T1 construct: purchased R & D systems 3817-AV
Test: human αVβ6 HTRF binding assay
Details: alternatively SPA-based assay
Outline: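 Biotinylated recombinant human αVβ6 (1.25 nM final) incubated with FITC-fibronectin (5 nM final) 1 h at RT, then streptavidin-terbium (0.625 nM final) added and left overnight at RT in the dark before HTRF reading. Buffer: 20 mM Tris pH 7.4, 1 mM MgCl2, 1 mM MnCl2, 0.01% Tween 20, 0.01% BSA.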

T1 sequence (P06756 31-992 limits assumed): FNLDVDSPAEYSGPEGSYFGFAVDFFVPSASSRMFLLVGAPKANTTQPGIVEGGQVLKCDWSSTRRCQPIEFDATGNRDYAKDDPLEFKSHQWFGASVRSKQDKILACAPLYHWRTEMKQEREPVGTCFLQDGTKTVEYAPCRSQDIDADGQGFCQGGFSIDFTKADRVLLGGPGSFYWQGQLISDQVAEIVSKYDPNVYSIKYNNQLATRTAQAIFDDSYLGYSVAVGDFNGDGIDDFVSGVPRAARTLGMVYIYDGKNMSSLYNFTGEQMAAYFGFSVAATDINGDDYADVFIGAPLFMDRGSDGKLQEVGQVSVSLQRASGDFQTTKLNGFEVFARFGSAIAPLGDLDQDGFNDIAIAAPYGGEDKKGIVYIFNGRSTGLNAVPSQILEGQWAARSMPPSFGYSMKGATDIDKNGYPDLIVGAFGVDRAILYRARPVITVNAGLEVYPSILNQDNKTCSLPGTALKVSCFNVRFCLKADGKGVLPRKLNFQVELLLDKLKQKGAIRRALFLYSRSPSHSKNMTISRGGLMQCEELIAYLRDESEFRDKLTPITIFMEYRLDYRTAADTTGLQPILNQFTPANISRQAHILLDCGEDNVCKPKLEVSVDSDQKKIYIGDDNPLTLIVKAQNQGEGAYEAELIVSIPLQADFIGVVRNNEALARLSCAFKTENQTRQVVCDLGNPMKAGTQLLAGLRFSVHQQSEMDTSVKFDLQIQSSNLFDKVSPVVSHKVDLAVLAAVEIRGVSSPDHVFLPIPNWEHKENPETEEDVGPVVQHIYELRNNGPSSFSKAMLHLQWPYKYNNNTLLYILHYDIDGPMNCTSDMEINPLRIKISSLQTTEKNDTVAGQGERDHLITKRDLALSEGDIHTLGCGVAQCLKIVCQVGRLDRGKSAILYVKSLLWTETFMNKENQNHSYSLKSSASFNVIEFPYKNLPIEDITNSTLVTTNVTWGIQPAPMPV
T1 sequence (P18564 22-707 limits assumed): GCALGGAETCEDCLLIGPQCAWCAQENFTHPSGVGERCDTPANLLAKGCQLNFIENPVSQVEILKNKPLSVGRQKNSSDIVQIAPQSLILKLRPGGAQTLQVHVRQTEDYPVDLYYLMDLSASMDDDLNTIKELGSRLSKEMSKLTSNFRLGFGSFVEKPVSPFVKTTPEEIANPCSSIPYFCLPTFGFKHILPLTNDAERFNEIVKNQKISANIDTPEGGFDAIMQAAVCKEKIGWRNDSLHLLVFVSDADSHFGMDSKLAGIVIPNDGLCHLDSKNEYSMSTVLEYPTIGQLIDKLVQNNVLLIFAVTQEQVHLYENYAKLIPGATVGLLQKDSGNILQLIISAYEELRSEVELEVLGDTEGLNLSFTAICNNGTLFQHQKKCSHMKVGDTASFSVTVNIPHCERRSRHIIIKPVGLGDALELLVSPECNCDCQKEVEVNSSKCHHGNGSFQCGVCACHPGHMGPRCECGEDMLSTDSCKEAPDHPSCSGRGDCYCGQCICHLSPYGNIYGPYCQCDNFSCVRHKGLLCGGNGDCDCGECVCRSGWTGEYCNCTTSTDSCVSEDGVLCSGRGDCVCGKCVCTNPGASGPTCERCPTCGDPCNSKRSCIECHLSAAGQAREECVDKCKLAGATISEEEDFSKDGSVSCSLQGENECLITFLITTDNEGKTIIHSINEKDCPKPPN

Row | IC50 [nM] | Compound
1 | 1.3 | Cc1cc(C)c(S(=O)(=O)N[C@@H](CNC(=O)C2CC3(CC(CCc4ccc5c(n4)NCCC5)C3)C2)C(=O)O)c(C)c1 (stereo partly drawn) [Example 5, (S)-3-(6-(2-(5,6,7,8-Tetrahydro-1,8-naphthyridin-2-yl)ethyl)spiro[3.3]heptane-2-carboxamido)-2-((2,4,6-trimethylphenyl)sulfonamido)propanoic acid]
2 | 7.5 | Cc1ncc([C@H](CC(=O)O)N2CC(OCCCc3ccc4c(n3)NCCC4)C2)cn1 [example 131, (S)-3-(2-methylpyrimidin-5-yl)-3-(3-(3-(5,6,7,8-tetrahydro-1,8-naphthyridin-2-yl)propoxy)azetidin-1-yl)propanoic acid]
3 | 8.4 | COc1ccc([C@H](CC(=O)O)NC(=O)C2CC3(C2)CN(CCc2ccc4c(n2)NCCC4)C3)cc1F [Example 39]
4 | 0.5 | O=C(O)C[C@H](NC1CN(CCCc2ccc3c(n2)NCCC3)C1)c1cc(Cl)cc(Cl)c1 [Example 74]
5 | 1.5 | O=C(O)C[C@@H](c1ccc2c(c1)OCC2)N1CC(CCCCc2ccc3c(n2)NCCC3)C1 [Example 155]
6 | 0.6 | COc1ccc([C@H](CC(=O)O)NC(=O)C2(F)CN(CCc3ccc4c(n3)NCCC4)C2)cn1 [Example 46]
7 | 4.3 | COc1ncc([C@H](CC(=O)O)NC(=O)N2CC(CCc3ccc4c(n3)NCCC4)C2)cn1 [Example 123]
8 | 2 | CC(C)(C)c1cc(Br)cc([C@H](CC(=O)O)NC(=O)C2CC3(C2)CN(CCc2ccc4c(n2)NCCC4)C3)c1 [Example 34]
9 | 64 | O=C(N[C@@H](CC(=O)N1CC(CCc2ccc3c(n2)NCCC3)C1)C(=O)O)OCc1ccccc1 [Example 7, (S)-2-(((Benzyloxy)carbonyl)amino)-4-oxo-4-(3-(2-(5,6,7,8-tetrahydro-1,8-naphthyridin-2-yl)ethyl)azetidin-1-yl)butanoic acid]
10 | 0.5 | COc1ccc([C@H](CC(=O)O)NC2CN(CCCc3ccc4c(n3)NCCC4)C2)cn1 [Example 11, (S)-3-(6-Methoxypyridin-3-yl)-3-((1-(3-(5,6,7,8-tetrahydro-1,8-naphthyridin-2-yl)propyl)azetidin-3-yl)amino)propanoic acid]
11 | 3.2 | O=C(O)C[C@H](NC1CC2(C1)CN(CCCc1ccc3c(n1)NCCC3)C2)c1cc(Cl)cc(Cl)c1 [Example 79]
12 | 4.9 | COc1ccc(C(CC(=O)O)N2CC(OCCCc3ccc4c(n3)NCCC4)C2)cc1F (stereo not drawn) [Example 135, 3-(3-fluoro-4-methoxyphenyl)-3-(3-(3-(5,6,7,8-tetrahydro-1,8-naphthyridin-2-yl)propoxy)azetidin-1-yl)propanoic acid, 2 TFA]
13 | 7.9 | Cc1ncc(C(CC(=O)O)N2CC(COCCc3ccc4c(n3)NCCC4)C2)cn1 (stereo not drawn) [Example 127, 3-(2-methylpyrimidin-5-yl)-3-(3-((2-(5,6,7,8-tetrahydro-1,8-naphthyridin-2-yl)ethoxy)methyl)azetidin-1-yl)propanoic acid, 2 TFA]
14 | 2.9 | COc1ncc([C@H](CC(=O)O)N2CC(CCCCc3ccc4c(n3)NCCC4)C2)cn1 [Example 156]
15 | 25 | Cc1nc2c(cc1CCN1CC3(CC(C(=O)N[C@@H](CC(=O)O)c4cc(Cl)cc(Cl)c4)C3)C1)CCCN2 [Example 4, (S)-3-(3,5-Dichlorophenyl)-3-(2-(2-(2-methyl-5,6,7,8-tetrahydro-1,8-naphthyridin-3-yl)ethyl)-2-azaspiro[3.3]heptane-6-carboxamido)propanoic acid]
16 | 9.9 | O=C(O)CC(c1cnc2ccccc2c1)C1CN(CCCCc2ccc3c(n2)NCCC3)C1 (stereo not drawn) [Example 142]
17 | 3.2 | COc1ccc([C@H](CC(=O)O)NC(=O)[C@H]2C[C@@H](Cc3ccc4c(n3)NCCC4)C2)cc1F [Example 201, (S)-3-(3-fluoro-4-methoxyphenyl)-3-((1s,3R)-3-((5,6,7,8-tetrahydro-1,8-naphthyridin-2-yl)methyl)cyclobutane-1-carboxamido)propanoic acid]
18 | 5.1 | O=C(N[C@@H](CNC(=O)[C@H]1C[C@@H](Cc2ccc3c(n2)NCCC3)C1)C(=O)O)OCc1ccccc1 [Example 196, (S)-2-(((Benzyloxy)carbonyl)amino)-3-(cis-3-((5,6,7,8-tetrahydro-1,8-naphthyridin-2-yl)methyl)cyclobutane-1-carboxamido)propanoic acid]
19 | 5.7 | COc1ccc(C(CC(=O)O)C2CC(NCCCc3ccc4c(n3)NCCC4)C2)cn1 (stereo not drawn) [Example 125]
20 | 4400 | COc1ccc(C(NC(=O)C2CC(CCc3ccc4c(n3)NCCC4)C2)C(C)(C)C(=O)O)cn1 (stereo not drawn) [Example 192]
21 | 17 | COc1ccc([C@H](CC(=O)O)N2CC(CCCc3ccc4c(n3)NCCC4)C2=O)cc1F (single isomer, unassigned) [Example 180]
22 | 4.18 | COc1ccc(C(CC(=O)O)C2CC(NCCCc3ccc4c(n3)NCCC4)C2)cc1F (stereo not drawn) [Example 126]
23 | 400 | CCOC(=O)C[C@H](NC(=O)C1CN(CCc2ccc3c(n2)NCCC3)C1)c1ccc(OC)nc1 [Example 48]
24 | 490 | COC(Cc1ccc2c(n1)NCCC2)C1CN(C(=O)C[C@H](NC(=O)OCc2ccccc2)C(=O)O)C1 (stereo partly drawn) [Example 24, (2S)-2-(((Benzyloxy)carbonyl)amino)-4-(3-(1-methoxy-2-(5,6,7,8-tetrahydro-1,8-naphthyridin-2-yl)ethyl)azetidin-1-yl)-4-oxobutanoic acid]

Row | IC50 [nM] | Compound
25 | 4300 | COc1ccc(C(NC(=O)C2CC(CCc3ccc4c(n3)NCCC4)C2)C(C)(C)C(=O)O)cn1 (stereo not drawn) [Example 191]
26 | 1.1 | O=C(O)C[C@@H](c1ccc(F)c(F)c1)N1CC(CCCCc2ccc3c(n2)NCCC3)C1 [Example 154]
27 | 3.6 | COc1ccc([C@H](CC(=O)O)NC2CN(CCc3ccc4c(n3)NCCC4)C2)cn1 [Example 12, (S)-3-(6-Methoxypyridin-3-yl)-3-((1-(2-(5,6,7,8-tetrahydro-1,8-naphthyridin-2-yl)ethyl)azetidin-3-yl)amino)propanoic acid]
28 | 28 | COc1ccc(C(CC(=O)O)C2(F)CN(CCCCc3ccc4c(n3)NCCC4)C2)cn1 (stereo not drawn) [Example 122]
29 | 5.6 | O=C(O)CC(c1cnc2ccccc2c1)N1CC(OCCCc2ccc3c(n2)NCCC3)C1 (stereo not drawn) [Example 133]
30 | 1.9 | CCCOC(=O)N[C@@H](CNC(=O)[C@H]1C[C@@H](Cc2ccc3c(n2)NCCC3)C1)C(=O)O [Example 198]
31 | 6.8 | Cc1ncc(C(CC(=O)O)N2CC3(CC(Cc4ccc5c(n4)NCCC5)C3)C2)cn1 (stereo not drawn) [Example 209, 3-(2-methylpyrimidin-5-yl)-3-(6-((5,6,7,8-tetrahydro-1,8-naphthyridin-2-yl)methyl)-2-azaspiro[3.3]heptan-2-yl)propanoic acid]
32 | 5.9 | O=C(O)CC(c1cnc2ccccc2c1)C1(F)CN(CCCCc2ccc3c(n2)NCCC3)C1 (stereo not drawn) [Example 118]
33 | 2.7 | Cc1cc(C)c(S(=O)(=O)N[C@@H](CNC(=O)C2CC3(C2)CN(CCc2ccc4c(n2)NCCC4)C3)C(=O)O)c(C)c1 [Example 35]
34 | 8.2 | Cc1ncc(C(CC(=O)O)N2CC(OCCCc3ccc4c(n3)NCCC4)C2)cn1 (stereo not drawn) [Example 130, 3-(2-methylpyrimidin-5-yl)-3-(3-(3-(5,6,7,8-tetrahydro-1,8-naphthyridin-2-yl)propoxy)azetidin-1-yl)propanoic acid, 2 TFA]
35 | 0.53 | CN(C1CN(CCCc2ccc3c(n2)NCCC3)C1)[C@@H](CC(=O)O)c1cc(Cl)cc(Cl)c1 [Example 98]
36 | 1 | COc1ccc([C@H](CC(=O)O)NC(=O)[C@H]2C[C@@H](CCc3ccc4c(n3)NCCC4)C2)cn1 [Example 60]
37 | 84.5 | COC(=O)N(C1CC2(C1)CN(CCc1ccc3c(n1)NCCC3)C2)[C@@H](CC(=O)O)c1cc(Cl)cc(Cl)c1 [Example 19, (S)-3-(3,5-Dichlorophenyl)-3-((methoxycarbonyl)(2-(2-(5,6,7,8-tetrahydro-1,8-naphthyridin-2-yl)ethyl)-2-azaspiro[3.3]heptan-6-yl)amino)propanoic acid]
38 | 160 | COc1ccc([C@@H](CC(=O)O)N2CC(OCCCc3ccc4c(n3)NCCC4)C2)cc1F [Example 137, (R)-3-(3-fluoro-4-methoxyphenyl)-3-(3-(3-(5,6,7,8-tetrahydro-1,8-naphthyridin-2-yl)propoxy)azetidin-1-yl)propanoic acid]
39 | 6.5 | O=C(O)CC(c1ccc2nccnc2c1)C1CC(NCCCc2ccc3c(n2)NCCC3)C1 (stereo not drawn) [Example 148]
40 | 294 | O=C(N[C@@H](CC(=O)N1CC(CCc2ccc3c(n2)NCCC3)C1)C(=O)O)OCc1cccc(F)c1 [Example 176]
41 | 3.9 | O=C(O)C[C@@H](c1ccc(F)c(F)c1)N1CC(CCCCc2ccc3c(n2)NCCC3)C1=O (stereo partly drawn) [Example 112]
42 | 5.9 | Cc1ncc([C@H](CC(=O)O)NC(=O)N2CC(CCc3ccc4c(n3)NCCC4)C2)cn1 [Example 120]
43 | 8.5 | COc1ccc(C(CC(=O)O)C2CN(CCCCc3ccc4c(n3)NCCC4)C2)cc1F (stereo not drawn) [Example 143]
44 | 110 | COc1ccc([C@H](CC(=O)O)NC(=O)C2CC3(CC(CCc4ccc5c(n4)NCCC5)C3)C2)cn1 (mixture of isomers) [Example 50]
45 | 7.4 | O=C(O)CCN(C(=O)OCc1ccccc1)C1CN(CCCc2ccc3c(n2)NCCC3)C1 [Example 119]
46 | 10 | COc1ccc([C@H](CC(=O)O)C2(F)CN(C(=O)CCCc3ccc4c(n3)NCCC4)C2)cc1F [Example 94]
47 | 448 | COc1ccc([C@H](CC(=O)O)N2CC(C)(CCCCc3ccc4c(n3)NCCC4)C2=O)cn1 (single isomer, unassigned) [Example 177]
48 | 13 | COc1ccc([C@H](CC(=O)O)NC(=O)C2CC3(C2)CN(CCc2ccc4c(n2)NCCC4)C3)cn1 [Example 2, (S)-3-(6-Methoxypyridin-3-yl)-3-(2-(2-(5,6,7,8-tetrahydro-1,8-naphthyridin-2-yl)ethyl)-2-azaspiro[3.3]heptane-6-carboxamido)propanoic acid, 3TFA]
